Experiment: xn = mol fraction of the nth substance listed

O=S(=O)([N-]S(=O)(=O)C(F)(F)F)C(F)(F)F.[Li+] + CC[n+]1ccn(C)c1.O=S(=O)([O-])C(F)(F)F + O
Conditions	electrical conductivity [S/m]	viscosity [mPa·s]
283 K, 101 kPa, x1 = 0.2649, x2 = 0.2649	0.36	96.6
283 K, 101 kPa, x1 = 0.4189, x2 = 0.2649	0.056	–
283 K, 101 kPa, x1 = 0.5195, x2 = 0.3509	0.014	–
293 K, 101 kPa, x1 = 0.2649, x2 = 0.2649	0.54	60.2
293 K, 101 kPa, x1 = 0.4189, x2 = 0.2649	0.1	410
293 K, 101 kPa, x1 = 0.5195, x2 = 0.3509	0.03	–
293.15 K, 100 kPa, x1 = 0.2745, x2 = 0.3509	–	69.3
293.15 K, 100 kPa, x1 = 0.3106, x2 = 0.3509	–	87
293.15 K, 100 kPa, x1 = 0.3509, x2 = 0.3509	–	129
293.15 K, 100 kPa, x1 = 0.3868, x2 = 0.3509	–	190
293.15 K, 100 kPa, x1 = 0.4189, x2 = 0.3509	–	292
293.15 K, 100 kPa, x1 = 0.4478, x2 = 0.3509	–	428
293.15 K, 100 kPa, x1 = 0.474, x2 = 0.3509	–	611
293.15 K, 100 kPa, x1 = 0.4978, x2 = 0.3509	–	880
293.15 K, 100 kPa, x1 = 0.5195, x2 = 0.3509	–	1587
298.1 K, 101 kPa, x1 = 0.2649, x2 = 0.2649	0.65	48.9
298.1 K, 101 kPa, x1 = 0.4189, x2 = 0.2649	0.14	302
298.1 K, 101 kPa, x1 = 0.5195, x2 = 0.3509	0.042	1125
298.15 K, 100 kPa, x1 = 0.2745, x2 = 0.3509	–	55
298.15 K, 100 kPa, x1 = 0.3106, x2 = 0.3509	–	73.5
298.15 K, 100 kPa, x1 = 0.3509, x2 = 0.3509	–	102
298.15 K, 100 kPa, x1 = 0.3868, x2 = 0.3509	–	147
298.15 K, 100 kPa, x1 = 0.4189, x2 = 0.3509	–	219
298.15 K, 100 kPa, x1 = 0.4478, x2 = 0.3509	–	316
298.15 K, 100 kPa, x1 = 0.474, x2 = 0.3509	–	439
298.15 K, 100 kPa, x1 = 0.4978, x2 = 0.3509	–	618
298.15 K, 100 kPa, x1 = 0.5195, x2 = 0.3509	–	1082
303 K, 101 kPa, x1 = 0.2649, x2 = 0.2649	0.77	40.2
303 K, 101 kPa, x1 = 0.4189, x2 = 0.2649	0.17	227
303 K, 101 kPa, x1 = 0.5195, x2 = 0.3509	0.057	789
303.15 K, 100 kPa, x1 = 0.2745, x2 = 0.3509	–	44.4
303.15 K, 100 kPa, x1 = 0.3106, x2 = 0.3509	–	59.3
303.15 K, 100 kPa, x1 = 0.3509, x2 = 0.3509	–	81.4
303.15 K, 100 kPa, x1 = 0.3868, x2 = 0.3509	–	115
303.15 K, 100 kPa, x1 = 0.4189, x2 = 0.3509	–	166
303.15 K, 100 kPa, x1 = 0.4478, x2 = 0.3509	–	238
303.15 K, 100 kPa, x1 = 0.474, x2 = 0.3509	–	326
303.15 K, 100 kPa, x1 = 0.4978, x2 = 0.3509	–	452
303.15 K, 100 kPa, x1 = 0.5195, x2 = 0.3509	–	770
313 K, 101 kPa, x1 = 0.2649, x2 = 0.2649	1.05	28
313 K, 101 kPa, x1 = 0.4189, x2 = 0.2649	0.27	138
313 K, 101 kPa, x1 = 0.5195, x2 = 0.3509	0.1	418
313.15 K, 100 kPa, x1 = 0.2745, x2 = 0.3509	–	30.6
313.15 K, 100 kPa, x1 = 0.3106, x2 = 0.3509	–	40.1
313.15 K, 100 kPa, x1 = 0.3509, x2 = 0.3509	–	54.2
313.15 K, 100 kPa, x1 = 0.3868, x2 = 0.3509	–	75.3
313.15 K, 100 kPa, x1 = 0.4189, x2 = 0.3509	–	104
313.15 K, 100 kPa, x1 = 0.4478, x2 = 0.3509	–	144
313.15 K, 100 kPa, x1 = 0.474, x2 = 0.3509	–	191
313.15 K, 100 kPa, x1 = 0.4978, x2 = 0.3509	–	255
313.15 K, 100 kPa, x1 = 0.5195, x2 = 0.3509	–	413
323 K, 101 kPa, x1 = 0.2649, x2 = 0.2649	1.38	20.4
323 K, 101 kPa, x1 = 0.4189, x2 = 0.2649	0.4	87.4
323 K, 101 kPa, x1 = 0.5195, x2 = 0.3509	0.16	243
323.15 K, 100 kPa, x1 = 0.2745, x2 = 0.3509	–	22.1
323.15 K, 100 kPa, x1 = 0.3106, x2 = 0.3509	–	28.7
323.15 K, 100 kPa, x1 = 0.3509, x2 = 0.3509	–	37.6
323.15 K, 100 kPa, x1 = 0.3868, x2 = 0.3509	–	49.3
323.15 K, 100 kPa, x1 = 0.4189, x2 = 0.3509	–	63.9
323.15 K, 100 kPa, x1 = 0.4478, x2 = 0.3509	–	92.9
323.15 K, 100 kPa, x1 = 0.474, x2 = 0.3509	–	120
323.15 K, 100 kPa, x1 = 0.4978, x2 = 0.3509	–	155
323.15 K, 100 kPa, x1 = 0.5195, x2 = 0.3509	–	239
333 K, 101 kPa, x1 = 0.2649, x2 = 0.2649	1.76	15.3
333 K, 101 kPa, x1 = 0.4189, x2 = 0.2649	0.56	58
333 K, 101 kPa, x1 = 0.5195, x2 = 0.3509	0.24	149
333.15 K, 100 kPa, x1 = 0.2745, x2 = 0.3509	–	16.5
333.15 K, 100 kPa, x1 = 0.3106, x2 = 0.3509	–	21.2
333.15 K, 100 kPa, x1 = 0.3509, x2 = 0.3509	–	27.2
333.15 K, 100 kPa, x1 = 0.3868, x2 = 0.3509	–	34.1
333.15 K, 100 kPa, x1 = 0.4189, x2 = 0.3509	–	44
333.15 K, 100 kPa, x1 = 0.4478, x2 = 0.3509	–	56.7
333.15 K, 100 kPa, x1 = 0.474, x2 = 0.3509	–	80
333.15 K, 100 kPa, x1 = 0.4978, x2 = 0.3509	–	102
333.15 K, 100 kPa, x1 = 0.5195, x2 = 0.3509	–	150
343.15 K, 100 kPa, x1 = 0.2745, x2 = 0.3509	–	12.7
343.15 K, 100 kPa, x1 = 0.3106, x2 = 0.3509	–	16.1
343.15 K, 100 kPa, x1 = 0.3509, x2 = 0.3509	–	19.6
343.15 K, 100 kPa, x1 = 0.3868, x2 = 0.3509	–	25.1
343.15 K, 100 kPa, x1 = 0.4189, x2 = 0.3509	–	31.6
343.15 K, 100 kPa, x1 = 0.4478, x2 = 0.3509	–	39.9
343.15 K, 100 kPa, x1 = 0.474, x2 = 0.3509	–	51.1
343.15 K, 100 kPa, x1 = 0.4978, x2 = 0.3509	–	64.1
343.15 K, 100 kPa, x1 = 0.5195, x2 = 0.3509	–	91.5
353.15 K, 100 kPa, x1 = 0.2745, x2 = 0.3509	–	10
353.15 K, 100 kPa, x1 = 0.3106, x2 = 0.3509	–	12.6
353.15 K, 100 kPa, x1 = 0.3509, x2 = 0.3509	–	15.1
353.15 K, 100 kPa, x1 = 0.3868, x2 = 0.3509	–	19
353.15 K, 100 kPa, x1 = 0.4189, x2 = 0.3509	–	23.6
353.15 K, 100 kPa, x1 = 0.4478, x2 = 0.3509	–	29.2
353.15 K, 100 kPa, x1 = 0.474, x2 = 0.3509	–	36.7
353.15 K, 100 kPa, x1 = 0.4978, x2 = 0.3509	–	45.9
353.15 K, 100 kPa, x1 = 0.5195, x2 = 0.3509	–	58
363.15 K, 100 kPa, x1 = 0.2745, x2 = 0.3509	–	7.98
363.15 K, 100 kPa, x1 = 0.3106, x2 = 0.3509	–	10
363.15 K, 100 kPa, x1 = 0.3509, x2 = 0.3509	–	11.9
363.15 K, 100 kPa, x1 = 0.3868, x2 = 0.3509	–	14.8
363.15 K, 100 kPa, x1 = 0.4189, x2 = 0.3509	–	18.1
363.15 K, 100 kPa, x1 = 0.4478, x2 = 0.3509	–	22.1
363.15 K, 100 kPa, x1 = 0.474, x2 = 0.3509	–	27.3
363.15 K, 100 kPa, x1 = 0.4978, x2 = 0.3509	–	33.8
363.15 K, 100 kPa, x1 = 0.5195, x2 = 0.3509	–	41.6
